Tests used:
Type in all cases: cell-based, murine
NADPH oxidase = NADPH oxidase expression in 3T3-L1 adipocytes; conditions: added to glucose 30 mmol/L, 48 hours; nifedipine 10 μmol/L
Procedure: 3T3-L1 preadipocytes were incubated at a density of 8000 cells/cm^2 (10 cm^2 dish) and grown in Dulbecco's modified Eagle's medium (DMEM) containing 10% FBS and antibiotics (adipocyte medium) at 37° C. in 5% CO2 in air. Confluent preadipocytes were induced to differentiate with a standard differentiation medium consisting of DMEM-F 10 (1:1, vol/vol) medium supplemented with 1% FBS, 1 μM dexamethasone, IBMX (0.5 mM) and antibiotics (1% Penicillin-Streptomycin). Preadipocytes were maintained in this differentiation medium for 3 days and subsequently cultured in adipocyte medium. Cultures were re-fed every 2-3 days to allow 90% of cells to reach full differentiation before conducting chemical treatment. Chemicals were freshly diluted in adipocyte medium before treatment. […] Cell viability was measured via trypan blue exclusion. Adipocyte 18s, cyclin A, NADPH oxidase, and UCP2 were quantitatively measured using a Smart Cycler Real Time PCR System (Cepheid, Sunnyvale, Calif.) with a TaqMan 1000 Core Reagent Kit (Applied Biosystems, Branchburg, N.J.). […] Reactions of quantitative RT-PCR for standards and unknown samples were also performed according to the instructions of Smart Cycler System (Cepheid, Sunnyvale, Calif.) and TaqMan Real Time PCR Core Kit (Applied Biosystems, Branchburg, N.J.). The mRNA quantitation for each sample was further normalized using the corresponding 18s quantitation.

[1] = tested on: ROS production in cultured 3T3-L1 adipocytes; assay: ROS production in cultured adipocytes (H2-DCFDA); conditions: 48 hours
Procedure: 3T3-L1 preadipocytes were incubated at a density of 8000 cells/cm^2 (10 cm^2 dish) and grown in Dulbecco's modified Eagle's medium (DMEM) containing 10% FBS and antibiotics (adipocyte medium) at 37° C. in 5% CO2 in air. Confluent preadipocytes were induced to differentiate with a standard differentiation medium consisting of DMEM-F 10 (1:1, vol/vol) medium supplemented with 1% FBS, 1 μM dexamethasone, IBMX (0.5 mM) and antibiotics (1% Penicillin-Streptomycin). Preadipocytes were maintained in this differentiation medium for 3 days and subsequently cultured in adipocyte medium. Cultures were re-fed every 2-3 days to allow 90% of cells to reach full differentiation before conducting chemical treatment. Chemicals were freshly diluted in adipocyte medium before treatment. Cells were washed with fresh adipocyte medium, re-fed with medium containing the different treatments, and incubated at 37° C. in 5% CO2 in air before analysis. Cell viability was measured via trypan blue exclusion. […] Cells were loaded with H2-DCFDA (2 μmol/L) 30 minute before the end of the incubation period (48 h). After washing twice with PBS, cells were scraped and disrupted by sonication on ice (20s). Fluorescence (emission 543 nm or 527 nm) and DNA content were then measured as described previously. The intensity of fluorescence was expressed as arbitary units per ng DNA.

[2] = tested on: [Ca^2+]i in cultured 3T3-L1 adipocytes; assay: Intracellular calcium in cultured adipocytes (fura-2); conditions: 4 hours
Procedure: 3T3-L1 preadipocytes were incubated at a density of 8000 cells/cm^2 (10 cm^2 dish) and grown in Dulbecco's modified Eagle's medium (DMEM) containing 10% FBS and antibiotics (adipocyte medium) at 37° C. in 5% CO2 in air. Confluent preadipocytes were induced to differentiate with a standard differentiation medium consisting of DMEM-F 10 (1:1, vol/vol) medium supplemented with 1% FBS, 1 μM dexamethasone, IBMX (0.5 mM) and antibiotics (1% Penicillin-Streptomycin). Preadipocytes were maintained in this differentiation medium for 3 days and subsequently cultured in adipocyte medium. Cultures were re-fed every 2-3 days to allow 90% of cells to reach full differentiation before conducting chemical treatment. Chemicals were freshly diluted in adipocyte medium before treatment. Cells were washed with fresh adipocyte medium, re-fed with medium containing the different treatments, and incubated at 37° C. in 5% CO2 in air before analysis. Cell viability was measured via trypan blue exclusion. [Ca^2+]i in adipocytes was measured using a fura-2 dual-wavelength fluorescence imaging system. Cells were plated in 35-mm dishes […]). […] Cells were loaded with fura-2 acetoxymethyl ester (fura-2 AM) (10 μmol/L) in the same buffer for 2 h at 37° C. in a dark incubator with 5% CO2. To remove extracellular dye, cells were rinsed with HBSS three times and then post-incubated at room temperature for an additional 1 h for complete hydrolysis of cytoplasmic fura-2 AM. The dishes with dye-loaded cells were mounted on the stage of Nikon TMS-F fluorescence inverted microscope with a Cohu model 4915 charge-coupled device (CCD) camera. Fluorescent images were captured alternatively at excitation wavelengths of 340 and 380 nm with an emission wavelength of 520 nm. After establishment of a stable baseline, the responses to 1α, 25-(OH)2-D3 was determined. [Ca^2+]i was calculated using a ratio equation as described previously. Each analysis evaluated responses of 5 representative whole cells. Images were analyzed with […]2 version 4.62 imaging software (Intracellular Imaging, Cincinnati, Ohio). […]

C=C1/C(=C\C=C2/CCC[C@]3(C)[C@@H]([C@H](C)CCCC(C)(C)O)CC[C@@H]23)C[C@@H](O)C[C@@H]1O [calcitriol, 1, 25-Dihydroxyvitamin D]
effect on NADPH oxidase expression (NADPH oxidase): stimulated
effect on high glucose induced ROS production ([1]; added to glucose 30 mmol/L, nifedipine 10 μmol/L): greater stimulation of ROS production than either glucose alone or glucose plus GDP

OO [H2O2, hydrogen peroxide]
increase in [Ca^2+]i ([2]; H2O2 100 nmol/L or glucose 30 mmol/L, p<0.001): 5 fold

Cc1c(C)c2c(c(C)c1O)CC[C@@](C)(CCC[C@H](C)CCC[C@H](C)CCCC(C)C)O2 [α-tocopherol]
effect on H2O2 induced increase in [Ca^2+]i ([2]; α-tocopherol 1 μmol/L with H2O2 100 nmol/L): reversed
effect on glucose induced increase in [Ca^2+]i ([2]; α-tocopherol 1 μmol/L with glucose 30 mmol/L): partially blocked
effect on ROS production in all groups ([1]; α-tocopherol 1 μmol/L): inhibited
